{"source": "patent US11452714B2", "about": "“Antibacterial agents including histidine kinase inhibitors” (Regents of the University of Minnesota, priority 2017, dated 2022)", "key": {"histidine kinase HK853 [1]": {"target": "T1, histidine kinase HK853 (Thermotoga maritima, UniProt Q9WZV7)", "T1 sequence (Q9WZV7 232-489)": "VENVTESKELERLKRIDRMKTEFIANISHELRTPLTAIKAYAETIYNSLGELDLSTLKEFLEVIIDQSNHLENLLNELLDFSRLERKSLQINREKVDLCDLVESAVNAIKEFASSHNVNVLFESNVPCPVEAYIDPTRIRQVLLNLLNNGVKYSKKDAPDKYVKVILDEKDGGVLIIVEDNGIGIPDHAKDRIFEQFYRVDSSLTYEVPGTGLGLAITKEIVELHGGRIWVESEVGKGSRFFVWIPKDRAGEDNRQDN", "assay": "biochemical", "procedure": "(§1) Triton X-100 was premixed with reaction buffer to yield 0.1% (v/v) in final 25-μL reactions. Samples were mixed and incubated in the dark at RT for 1 h before quenching with 8.6 μL 2×SDS-PAGE sample loading buffer and loading 10 μL on a 10%0/stacking gel. After SDS-PAGE, in-gel fluorescence detection elucidated HK853 activity, and silver staining of the gels ensured even protein loading. Integrated density values of the fluorescent gel bands were normalized as “% Activity” with respect to a control that contained no inhibitor. Data were plotted in GraphPad Prism (available from GraphPad Software, San Diego, Calif.) with relation to the log of molar inhibitor to determine IC50 values, using EQUATION 1."}, "histidine kinase HK853 [2]": {"target": "T1, histidine kinase HK853", "details": "for inhibition of HK853: non-native bases or nucleosides, in words", "procedure": "as §1"}, "HK853": {"target": "T2, HK853 (Thermotoga maritima, UniProt Q9WZV7)", "T2 sequence (Q9WZV7 232-489)": "T1 sequence (Q9WZV7 232-489)", "details": "for inhibition of HKs: in words; for IC50 values (95% confidence interval), n = 2: riluzole analogs, second TABLE 3, 0.1% Triton X-100", "procedure": "Triton X-100 was premixed with reaction buffer to yield 0.1% (v/v) in final 25-μL reactions. […] Samples were mixed and incubated in the dark at RT for 1 h before quenching with 8.6 μL 4×SDS-PAGE sample loading buffer and loading 15 μL on a 10% stacking gel. After SDS-PAGE, in-gel fluorescence detection elucidated HK853 activity, and coomassie staining of the gels ensured even protein loading. Integrated density values of the fluorescent gel bands were normalized as “% Activity” with respect to a control that contained no inhibitor."}, "[3]": {"details": "IC50, sulfonyl fluoride side chains, Example 4"}, "[4]": {"details": "purine derivatives, TABLE 2, N/I = no inhibition"}, "[5]": {"details": "IC50, purine derivatives, TABLE 2, N/I = no inhibition"}, "[6]": {"details": "phenyl-adenine derivatives, first TABLE 3, N/I = no inhibition"}, "[7]": {"details": "adenine derivatives, TABLE 1, N/I = no inhibition was observed"}}, "note": "Where two headings read alike, the source gives them in different places.", "data": [{"smiles": "Nc1ncnc2c1ncn2C1OC(COC(=O)c2ccccc2)C(O)C1O", "note": "(stereo not drawn)", "values": [{"measurement": "IC50", "setting": "histidine kinase HK853 [1]", "value": 192, "unit": "µM"}]}, {"smiles": "Nc1ncnc2c1ncn2C1OC(COC(=O)c2ccc(S(=O)(=O)F)cc2)C(O)C1O", "note": "(stereo not drawn) [6-O-benzoyl adenosine, R=SO2F]", "values": [{"measurement": "IC50", "setting": "histidine kinase HK853 [1]; [3]", "value": 5.3, "unit": "µM"}]}, {"smiles": "OCC1OC(n2cnc3c(Cl)ncnc32)C(O)C1O", "note": "(stereo not drawn) [CW19]", "values": [{"measurement": "IC50", "setting": "histidine kinase HK853 [2]; [4]", "value": "N/I"}]}, {"smiles": "Nc1nc(Cl)c2nc[nH]c2n1", "note": "[CW20]", "values": [{"measurement": "IC50", "setting": "histidine kinase HK853 [2]; [4]", "value": 118, "unit": "µM"}]}, {"smiles": "Nc1nc(Cl)nc2[nH]cnc12", "note": "[CW22]", "values": [{"measurement": "IC50", "setting": "histidine kinase HK853 [2]; [4]", "value": 156, "unit": "µM"}]}, {"smiles": "Nc1nc(F)nc2[nH]cnc12", "note": "[CW24]", "values": [{"measurement": "IC50", "setting": "histidine kinase HK853 [2]; [4]", "value": 310, "unit": "µM"}]}, {"smiles": "Nc1nc(F)nc2c1ncn2C1OC(CO)C(O)C1O", "note": "(stereo not drawn) [CW25]", "values": [{"measurement": "IC50", "setting": "histidine kinase HK853 [1]; [5]", "value": 218, "unit": "µM"}]}, {"smiles": "Cn1cnc2c(N)ncnc21", "note": "[CW29]", "values": [{"measurement": "IC50", "setting": "histidine kinase HK853 [1]; [5]", "value": 150, "unit": "µM"}]}, {"smiles": "Cn1cnc2ncnc(N)c21", "note": "[CW30]", "values": [{"measurement": "IC50", "setting": "histidine kinase HK853 [2]; [4]", "value": "N/I"}]}, {"smiles": "OCC1OC(n2cnc3c(Nc4ccccc4)ncnc32)C(O)C1O", "note": "(stereo not drawn) [CW35]", "values": [{"measurement": "IC50", "setting": "histidine kinase HK853 [2]; [6]", "value": "N/I"}]}, {"smiles": "Clc1nc(Nc2ccccc2)c2nc[nH]c2n1", "note": "[CW36]", "values": [{"measurement": "IC50", "setting": "histidine kinase HK853 [2]; [6]", "value": "N/I"}]}, {"smiles": "Clc1ccc(Nc2ncnc3[nH]cnc23)cc1", "note": "[CW37]", "values": [{"measurement": "IC50", "setting": "histidine kinase HK853 [1]", "value": 1700, "unit": "µM"}]}, {"smiles": "Fc1ccc(Nc2ncnc3[nH]cnc23)cc1", "note": "[CW38]", "values": [{"measurement": "IC50", "setting": "histidine kinase HK853 [1]", "value": 1900, "unit": "µM"}]}, {"smiles": "Nc1ncnc2c1ncn2C1OC(CO)C(O)C1O", "note": "(stereo not drawn) [Compound C12]", "values": [{"measurement": "IC50", "setting": "histidine kinase HK853 [1]", "value": 445, "unit": "µM"}]}, {"smiles": "Cn1cnc2c(N)ncnc21", "note": "[Compound C13]", "values": [{"measurement": "IC50", "setting": "histidine kinase HK853 [1]; IC50, adenine derivatives, TABLE 1, N/I = no inhibition was observed", "value": 145, "unit": "µM"}]}, {"smiles": "c1ccc(Nc2ncnc3nc[nH]c23)cc1", "note": "[Compound C15]", "values": [{"measurement": "IC50", "setting": "histidine kinase HK853 [1]", "value": 7.6, "unit": "µM"}]}, {"smiles": "OCC1OC(n2cnc3c(Cl)ncnc32)C(O)C1O", "note": "(stereo not drawn) [Compound C18]", "values": [{"measurement": "IC50", "setting": "histidine kinase HK853 [2]; [7]", "value": "N/I"}]}, {"smiles": "CCCN(CCC)c1ncnc2c1ncn2C1OC(CO)C(O)C1O", "note": "(stereo not drawn) [Compound C19]", "values": [{"measurement": "IC50", "setting": "histidine kinase HK853 [1]", "value": 1100, "unit": "µM"}]}, {"smiles": "Cn1cnc2ncnc(N)c21", "note": "[Compound C26]", "values": [{"measurement": "IC50", "setting": "histidine kinase HK853 [2]; [7]", "value": "N/I"}]}, {"smiles": "Nc1nc2nc[nH]c2c(=O)[nH]1", "note": "[Guanine, reference compound]", "values": [{"measurement": "inhibition of HK853", "setting": "histidine kinase HK853 [2]", "value": "did not appear to inhibit HK853"}]}, {"smiles": "Nc1nc2c(ncn2[C@@H]2O[C@H](CO)[C@@H](O)[C@H]2O)c(=O)[nH]1", "note": "[Guanosine, reference compound]", "values": [{"measurement": "inhibition of HK853", "setting": "histidine kinase HK853 [2]", "value": "did not appear to inhibit HK853"}]}, {"smiles": "OC[C@H]1O[C@@H](n2cnc3c(O)ncnc32)[C@H](O)[C@@H]1O", "note": "[Inosine, reference compound]", "values": [{"measurement": "inhibition of HK853", "setting": "histidine kinase HK853 [2]", "value": "did not appear to inhibit HK853"}]}, {"smiles": "Nc1nc2c(Cl)cc(Cl)cc2s1", "note": "[Rilu-10]", "values": [{"measurement": "inhibition of HKs", "setting": "HK853", "value": "did not significantly inhibit HKs"}, {"measurement": "IC50 values (95% confidence interval), n = 2", "setting": "HK853", "value": "No Inhibition"}]}, {"smiles": "Nc1nc2cc(Br)c(Br)cc2s1", "note": "[Rilu-11]", "values": [{"measurement": "inhibition of HKs", "setting": "HK853", "value": "did not significantly inhibit HKs"}, {"measurement": "IC50 values (95% confidence interval), n = 2", "setting": "HK853", "value": "No Inhibition"}]}, {"smiles": "Nc1nc2ccc(NCc3ccc(S(=O)(=O)F)cc3)cc2s1", "note": "[riluzole analog with benzyl SO2F]", "values": [{"measurement": "IC50", "setting": "histidine kinase HK853 [1]; [3]", "value": 2.1, "unit": "µM"}]}]}
